{"source": "patent US11827917B1", "about": "“Methods for the conversion of fermentable sugars to ethanol” (Colorado State University Research Foundation, priority 2020, dated 2023)", "key": {"[1]": {"system": "S. cerevisiae JAY 270", "test": "Serum-bottle cultivation in YPD: biomass, glycerol, ethanol yields", "assay_type": "cell-based, Saccharomyces cerevisiae", "method": "Procedure: Cultivations in serum bottles were used to determine the effect of the best-performing screened chemicals on the ethanol yield. S. cerevisiae JAY 270 was pre-cultured in 100 mL of YPD medium in 200-mL serum bottles overnight in a shaker at 30° C. and 200 rpm. The precultured yeast cells were collected and washed twice as described above. The cell pellet was resuspended in about 10 mL of 0.8% (w/v) NaCl and the cell concentration was estimated as OD600. TyrOH, PheOH, and TrpOH were added to 30 mL of YPD medium in 100-mL serum bottles at 0.05% and 0.2% respectively. The same amount of DMSO was added to YPD medium to serve as the control for TrpOH and TyrOH treatments. The bottles were inoculated with the prepared yeast cells to obtain an initial cell concentration of OD600=0.2. The serum bottles were sealed and cultured in a shaker at 30° C. and 200 rpm for 24 h. Each condition had three biological replicates.\n(§1) Analytical methods: Cell growth was evaluated by monitoring OD600 and cell dry mass concentration. For dry mass measurements, 1.0 mL of culture was transferred to a pre-dried and pre-weighed 2-mL centrifuge tube. The tubes were centrifuged for 10 min at 14000 rpm using a microcentrifuge, and then the cell pellets were dried in an oven for 3 days at 65° C. The cell dry mass was determined by subtracting the initial tube mass from the dried mass of tube with cells. The concentrations of glucose, ethanol, and glycerol were measured via HPLC (Shimadzu LC20A series) outfitted with a refractive index detector and using an Aminex HPX-87H (300×7.8 mm) organic acid column and Cation H+ guard cartridge (Bio Rad Laboratories, Hercules, CA). The column was maintained at 65° C. and the mobile phase was 5 mM sulfuric acid with a flow rate of 0.6 mL/min. Standard compound solutions were used to calibrate the HPLC. Each sample was analyzed three times by HPLC."}, "[2]": {"system": "S. mikatae JAY 1504", "test": "Serum-bottle cultivation in YPD, different yeast strains", "assay_type": "cell-based", "details": "0.2%", "method": "as §1\n(§2) Procedure: Seven yeast strains (S. cerevisiae ATCC 26603, S. cerevisiae JAY 238, S. cerevisiae JAY 240, S. cerevisiae JAY 241, S. paradoxus JAY 1502, S. kudriavzezii JAY 1503, and S. mikatae JAY 1504) were pre-cultured in 30 mL of YPD medium in 100 mL serum bottle overnight in a shaker at 30° C. and 200 rpm. The precultured yeast cells of each strains were collected and washed twice. Finally, the cell pellet was resuspended in about 10 mL 0.8% (w/v) NaCl and the OD600 measured. TyrOH, PheOH, and TrpOH were added to 30 mL of YPD medium in 100-mL serum bottles at 0.2% (w/v) respectively. The same amount of DMSO was added in YPD medium and served as control to the TrpOH and TyrOH treatments. The prepared yeast cells were added to obtain the initial cell concentration at OD600=0.2. The serum bottles were sealed and cultured in a shaker at 30° C. and 200 rpm for 24 h. There were three biological replicates for each treatment."}, "[3]": {"system": "S. kudriavzezii JAY 1503", "test": "Serum-bottle cultivation in YPD, different yeast strains", "assay_type": "cell-based", "details": "0.2%", "method": "as §1, §2"}, "[4]": {"system": "S. paradoxus JAY 1502", "test": "Serum-bottle cultivation in YPD, different yeast strains", "assay_type": "cell-based", "details": "0.2%", "method": "as §1, §2"}, "[5]": {"system": "S. cerevisiae JAY 270", "test": "Growth test in liquid YNB medium, low/high nitrogen, serum bottles", "assay_type": "cell-based, Saccharomyces cerevisiae", "details": "40, 200, 1000 mg/L; low and high nitrogen media", "method": "A second set of tests was performed in a defined liquid medium, Yeast Nitrogen Base with Glucose (YNB), containing (NH4)2SO4 at either low (1 mM) or high (10 mM) nitrogen content. […] All serum bottles were incubated in a shaker at 30° C. and 150 RPM. Each treatment was performed in biological duplicate. Samples were collected at 0, 5, and 10 hours."}, "[6]": {"details": "0.05% (w/v), YPD, serum bottles"}, "[7]": {"details": "S. paradoxus JAY 1502, YPD (Table 9B)"}}, "note": "Marks after values point to notes of the source that are not given here."}
{"smiles": "OCCc1c[nH]c2ccccc12", "note": "[TrpOH, tryptophol]", "values": [{"measurement": "Biomass Yield", "setting": "[1]; [6]", "value": "0.078 + 0.001 g/g"}, {"measurement": "Biomass yield % change vs. control", "setting": "[1]; [6]", "value": "−22* %"}, {"measurement": "EtOH yield", "setting": "[1]; [6]", "value": "0.41 ± 0.01", "unit": "g/g"}, {"measurement": "EtOH yield % change vs. control", "setting": "[1]; [6]", "value": "7.9* %"}, {"measurement": "Glycerol yield", "setting": "[1]; [6]", "value": "0.027 ± 0.001", "unit": "g/g"}, {"measurement": "Glycerol yield % change vs. control", "setting": "[1]; [6]", "value": "−20* %"}, {"measurement": "Biomass yield vs. reference", "setting": "[1]; 0.05%, YPD, serum bottles", "value": "−22.0", "unit": "%"}, {"measurement": "Ethanol yield", "setting": "[1]; 0.05%, YPD, serum bottles", "value": "0.41 ± 0.01", "unit": "g/g"}, {"measurement": "Ethanol yield vs. reference", "setting": "[1]; 0.05%, YPD, serum bottles", "value": 7.9, "unit": "%"}, {"measurement": "Glycerol yield", "setting": "[1]; 0.05%, YPD, serum bottles", "value": "0.027 ± 0.001", "unit": "g/g"}, {"measurement": "Glycerol yield vs. reference", "setting": "[1]; 0.05%, YPD, serum bottles", "value": "−19.6", "unit": "%"}, {"measurement": "OD600", "setting": "[1]; 0.05%, YPD, serum bottles", "value": 3.01}, {"measurement": "Effect on yeast cell growth", "setting": "[1]; 0.2%", "value": "reduced yeast cell growth"}, {"measurement": "Biomass Yield", "setting": "[1]; 0.2% (w/v), YPD, serum bottles", "value": "0.042 + 0.006 g/g"}, {"measurement": "Biomass yield % change vs. control", "setting": "[1]; 0.2% (w/v), YPD, serum bottles", "value": "−58* %"}, {"measurement": "EtOH yield", "setting": "[1]; 0.2% (w/v), YPD, serum bottles", "value": "0.41 ± 0.01", "unit": "g/g"}, {"measurement": "EtOH yield % change vs. control", "setting": "[1]; 0.2% (w/v), YPD, serum bottles", "value": "10* %"}, {"measurement": "Glycerol yield", "setting": "[1]; 0.2% (w/v), YPD, serum bottles", "value": "0.027 ± 0.009", "unit": "g/g"}, {"measurement": "Glycerol yield % change vs. control", "setting": "[1]; 0.2% (w/v), YPD, serum bottles", "value": "−22* %"}, {"measurement": "Biomass yield vs. reference", "setting": "[1]; 0.2%, YPD, serum bottles", "value": "−58.2", "unit": "%"}, {"measurement": "Effect on ethanol yield", "setting": "[1]; 0.2%, YPD, serum bottles", "value": "increased the ethanol yield significantly"}, {"measurement": "Ethanol yield", "setting": "[1]; 0.2%, YPD, serum bottles", "value": "0.41 ± 0.01", "unit": "g/g"}, {"measurement": "Ethanol yield vs. reference", "setting": "[1]; 0.2%, YPD, serum bottles", "value": 10.3, "unit": "%"}, {"measurement": "Glycerol yield", "setting": "[1]; 0.2%, YPD, serum bottles", "value": "0.027 ± 0.009", "unit": "g/g"}, {"measurement": "Glycerol yield vs. reference", "setting": "[1]; 0.2%, YPD, serum bottles", "value": "−21.9", "unit": "%"}, {"measurement": "OD600", "setting": "[1]; 0.2%, YPD, serum bottles", "value": 1.52}, {"measurement": "Cell growth", "setting": "[2]; S. mikatae JAY 1504", "value": "very low cell growth"}, {"measurement": "DCW", "setting": "[2]; S. mikatae JAY 1504, YPD", "value": 1.45, "unit": "mg"}, {"measurement": "DCW Δ vs. ref", "setting": "[2]; S. mikatae JAY 1504, YPD", "value": 43.3, "unit": "%"}, {"measurement": "OD600", "setting": "[2]; S. mikatae JAY 1504, YPD", "value": 0.64}, {"measurement": "OD600 Δ vs. ref", "setting": "[2]; S. mikatae JAY 1504, YPD", "value": 28.1, "unit": "%"}, {"measurement": "Cell growth", "setting": "[3]; S. kudriavzezii JAY 1503", "value": "very low cell growth"}, {"measurement": "DCW", "setting": "[3]; S. kudriavzezii JAY 1503, YPD", "value": 0.48, "unit": "mg"}, {"measurement": "DCW Δ vs. ref", "setting": "[3]; S. kudriavzezii JAY 1503, YPD", "value": 18.6, "unit": "%"}, {"measurement": "OD600", "setting": "[3]; S. kudriavzezii JAY 1503, YPD", "value": 0.16}, {"measurement": "OD600 Δ vs. ref", "setting": "[3]; S. kudriavzezii JAY 1503, YPD", "value": 9.9, "unit": "%"}, {"measurement": "Biomass Yield", "setting": "[4]; S. paradoxus JAY 1502", "value": "0.038 ± 0.001", "unit": "g/g"}, {"measurement": "Biomass yield % change vs. control", "setting": "[4]; S. paradoxus JAY 1502", "value": "−42* %"}, {"measurement": "EtOH yield", "setting": "[4]; S. paradoxus JAY 1502", "value": "0.417 ± 0.056", "unit": "g/g"}, {"measurement": "EtOH yield % change vs. control", "setting": "[4]; S. paradoxus JAY 1502", "value": "+7.2* %"}, {"measurement": "Glycerol yield increase from control", "setting": "[4]; S. paradoxus JAY 1502", "value": 71, "unit": "%"}, {"measurement": "DCW", "setting": "[4]; S. paradoxus JAY 1502, YPD", "value": 1.40, "unit": "mg"}, {"measurement": "DCW Δ vs. ref", "setting": "[4]; S. paradoxus JAY 1502, YPD", "value": 52.8, "unit": "%"}, {"measurement": "OD600", "setting": "[4]; S. paradoxus JAY 1502, YPD", "value": 0.40}, {"measurement": "OD600 Δ vs. ref", "setting": "[4]; S. paradoxus JAY 1502, YPD", "value": 18.0, "unit": "%"}, {"measurement": "Biomass Yield", "setting": "[4]; [7]", "value": "0.038 + 0.001 g/g"}, {"measurement": "Biomass yield Δ vs. ref", "setting": "[4]; [7]", "value": "−42.0", "unit": "%"}, {"measurement": "Ethanol yield", "setting": "[4]; [7]", "value": "0.417 ± 0.056", "unit": "g/g"}, {"measurement": "Ethanol yield Δ vs. ref", "setting": "[4]; [7]", "value": 7.2, "unit": "%"}, {"measurement": "Inhibitory effect on yeast cell growth in liquid YNB medium", "setting": "[5]", "value": "strongest inhibitory effect"}]}
